Test results from patent US7592366B2, “Therapeutic compounds” (Allergan, Inc., priority 2006, dated 2009).

What was measured:
EP4 receptors = molecular target: T1, EP4 receptors (Homo sapiens, UniProt P35408); assay: Radioligand binding [3H]PGE2, EP4 Ki; conditions: [3H]PGE2 competition, HEK-293 cells expressing EP4
T1 construct: expressed in transfected cells; host or cells: HEK-293
Experimental: HEK-293 cells stably expressing the human or feline FP receptor, or EP1, EP2, or EP4 receptors were washed with TME buffer, scraped from the bottom of the flasks, and homogenized for 30 sec using a Brinkman PT 10/35 polytron. TME buffer was added to achieve a final 40 ml volume in the centrifuge tubes (the composition of TME is 100 mM TRIS base, 20 mM MgCl2, […]; 10N HCl is added to achieve a pH of 7.4).
The cell homogenate was centrifuged at 19000 r.p.m. for 20 min at 4° C. using a Beckman Ti-60 rotor. The resultant pellet was resuspended in TME buffer to give a final 1 mg/ml protein concentration, as determined by Biorad assay. Radioligand binding competition assays vs. [^3H-]17-phenyl PGF2α (5 nM) were performed in a 100 μl volume for 60 min. Binding reactions were started by adding plasma membrane fraction. The reaction was terminated by the addition of 4 ml ice-cold TRIS-HCl buffer and rapid filtration through glass fiber GF/B filters using a Brandel cell harvester. The filters were washed 3 times with ice-cold buffer and oven dried for one hour.
[^3H-] PGE2 (specific activity 180 Ci mmol) was used as the radioligand for EP receptors. [^3H] 17-phenyl PGF2α was employed for FP receptor binding studies. Binding studies employing EP1, EP2, EP4 and FP receptors were performed in duplicate in at least three separate experiments. A 200 μl assay volume was used. Incubations were for 60 min at 25° C. and were terminated by the addition of 4 ml of ice-cold 50 mM TRIS-HCl, followed by rapid filtration through Whatman GF/B filters and three additional 4 ml washes in a cell harvester (Brandel). Competition studies were performed using a final concentration of 5 nM [^3H]-PGE2, or 5 nM [^3H] 17-phenyl PGF2α and non-specific binding determined with 10^−5M of unlabeled PGE2, or 17-phenyl PGF2α, according to receptor subtype studied.

EP2 = EP2 (Homo sapiens, UniProt P43116); assay: cAMP assay, EP2; format: cell-based; design: expressed in transfected cells; host or cells: HEK-EBNA; conditions: HEK-EBNA cells expressing EP2
Sequence of EP2 (P43116 whole entry): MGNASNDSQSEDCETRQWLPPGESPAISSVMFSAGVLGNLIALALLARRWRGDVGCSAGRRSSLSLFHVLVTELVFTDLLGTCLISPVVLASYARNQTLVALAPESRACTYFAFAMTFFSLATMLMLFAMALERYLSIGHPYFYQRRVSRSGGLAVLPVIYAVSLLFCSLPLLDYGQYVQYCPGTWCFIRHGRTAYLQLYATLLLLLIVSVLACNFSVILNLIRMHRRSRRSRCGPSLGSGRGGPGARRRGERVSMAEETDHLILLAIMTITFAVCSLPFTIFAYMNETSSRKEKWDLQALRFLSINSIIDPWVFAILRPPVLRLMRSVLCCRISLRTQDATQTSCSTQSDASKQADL
Experimental: A 384-well drug plate was prepared to contain 6 test compounds, PGE2 and cAMP in 16 serial dilutions in triplicate, using a Biomek station. HEK-EBNA cells expressing a target PG receptor subtype (EP2 or EP4) were suspended in a stimulation buffer (HBSS, 0.1% BSA, 0.5 mM IBMX and 5 mM HEPES, pH 7.4) in a density of 10^4 cells/5 μl. The reaction was initiated by mixing 5 μL drug dilutions with 5 μl of HEK-EBNA cells in a well, carried out for 30 min at room temperature, and followed by the addition of 5 μl anti-cAMP acceptor beads in the control buffer with Tween-20 (25 mM NaCl, 0.03% Tween-20, 5 mM HEPES, pH7.4). After 30 min in the dark at room temperature, the mixtures were incubated with 15 μl biotinylated-cAMP/strepavidin donor beads in Lysis/Detection buffer (0.1% BSA, 0.3% Tween-20 and 5 mM HEPES, pH7.4) for 45 min at the room temperature. Fluorescence changes were read using a Fusion-alpha HT microplate reader.

hEP2/Gqs5 = molecular target: T2, hEP2/Gqs5 (Homo sapiens, UniProt P43116); assay: FLIPR calcium signal, EP2; format: cell-based; conditions: HEK-293(EBNA) cells
T2 construct: expressed in transfected cells; host or cells: HEK-293(EBNA)
T2 sequence (P43116 whole entry): as above
Experimental: (§1) HEK-293(EBNA) cells, stably expressing one type or subtype of recombinant human prostaglandin receptors (prostaglandin receptors expressed: hDP/Gqs5; hEP1; hEP2/Gqs5; hEP3A/Gqi5; hEP4/Gqs5; hFP; hIP; hTP), were cultured in 100 mm culture dishes in high-glucose DMEM medium containing 10% fetal bovine serum, 2 mM l-glutamine, 250 μg/ml geneticin (G418) and 200 μg/ml hygromycin B as selection markers, and 100 units/ml penicillin G, 100 μg/ml streptomycin and 0.25 μg/ml amphotericin B.
Cells were seeded at a density of 5×10^4 cells per well in Biocoat® Poly-D-lysine-coated black-wall, clear-bottom 96-well plates (Becton-Dickinson) and allowed to attach overnight in an incubator at 37° C. Cells were then washed two times with HBSS-HEPES buffer (Hanks Balanced Salt Solution without bicarbonate and phenol red, 20 mM HEPES, pH 7.4) using a Denley Cellwash plate washer (Labsystems). After 45 minutes of dye-loading in the dark, using the calcium-sensitive dye Fluo-4 […] at a final concentration of 2 μM, plates were washed four times with HBSS-HEPES buffer to remove excess dye leaving 100 μl in each well. Plates were re-equilibrated to 37° C. for a few minutes.
Cells were excited with an Argon laser at 488 nm, and emission was measured through a 510-570 nm bandwidth emission filter (FLIPR™, Molecular Devices, Sunnyvale, Calif.). Drug solution was added in a 50 μl volume to each well to give the desired final concentration. The peak increase in fluorescence intensity was recorded for each well. On each plate, four wells each served as negative (HBSS-HEPES buffer) and positive controls (standard agonists: BW245C (hDP); PGE2 (hEP1; hEP2/Gqs5; hEP3A/Gqi5; hEP4/Gqs5); PGF2α (hFP); carbacyclin (hIP); U-46619 (hTP), depending on receptor). The peak fluorescence change in each drug-containing well was then expressed relative to the controls.
Compounds were tested in a high-throughput (HTS) or concentration-response (CoRe) format. In the HTS format, forty-four compounds per plate were examined in duplicates at a concentration of 10^−5 M. To generate concentration-response curves, four compounds per plate were tested in duplicates in a concentration range between 10^−5 and 10^−11 M. The duplicate values were averaged. In either, HTS or CoRe format each compound was tested on at least 3 separate plates using cells from different passages to give an n≧3.

hEP3A/Gqi5 = molecular target: T3, hEP3A/Gqi5 (Homo sapiens, UniProt P43115); assay: FLIPR calcium signal, hEP3A; format: cell-based; conditions: read-out: Other Receptors (EC50 in nM) hEP3A
T3 construct: expressed in transfected cells; host or cells: HEK-293(EBNA)
T3 sequence (P43115 1-390): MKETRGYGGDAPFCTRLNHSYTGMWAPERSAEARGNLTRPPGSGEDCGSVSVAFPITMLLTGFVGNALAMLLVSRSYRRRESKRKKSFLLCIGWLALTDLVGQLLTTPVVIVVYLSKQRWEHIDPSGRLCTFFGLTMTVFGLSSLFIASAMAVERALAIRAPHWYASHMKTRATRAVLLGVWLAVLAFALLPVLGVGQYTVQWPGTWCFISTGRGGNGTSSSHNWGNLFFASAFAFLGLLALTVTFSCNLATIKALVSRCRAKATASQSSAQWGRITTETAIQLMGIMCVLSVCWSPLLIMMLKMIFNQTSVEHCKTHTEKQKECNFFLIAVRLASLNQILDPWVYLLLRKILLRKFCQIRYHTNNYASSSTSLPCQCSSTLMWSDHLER
Experimental: as §1
Cells were seeded at a density of 5×10^4 cells per well in Biocoat® Poly-D-lysine-coated black-wall, clear-bottom 96-well plates (Becton-Dickinson) and allowed to attach overnight in an incubator at 37° C. Cells were then washed two times with HBSS-HEPES buffer (Hanks Balanced Salt Solution without bicarbonate and phenol red, 20 mM HEPES, pH 7.4) using a Denley Cellwash plate washer (Labsystems). […]
Cells were excited with an Argon laser at 488 nm, and emission was measured through a 510-570 nm bandwidth emission filter (FLIPR™, Molecular Devices, Sunnyvale, Calif.). […] The peak increase in fluorescence intensity was recorded for each well. […] The peak fluorescence change in each drug-containing well was then expressed relative to the controls. […]

T1 sequence (P35408 whole entry): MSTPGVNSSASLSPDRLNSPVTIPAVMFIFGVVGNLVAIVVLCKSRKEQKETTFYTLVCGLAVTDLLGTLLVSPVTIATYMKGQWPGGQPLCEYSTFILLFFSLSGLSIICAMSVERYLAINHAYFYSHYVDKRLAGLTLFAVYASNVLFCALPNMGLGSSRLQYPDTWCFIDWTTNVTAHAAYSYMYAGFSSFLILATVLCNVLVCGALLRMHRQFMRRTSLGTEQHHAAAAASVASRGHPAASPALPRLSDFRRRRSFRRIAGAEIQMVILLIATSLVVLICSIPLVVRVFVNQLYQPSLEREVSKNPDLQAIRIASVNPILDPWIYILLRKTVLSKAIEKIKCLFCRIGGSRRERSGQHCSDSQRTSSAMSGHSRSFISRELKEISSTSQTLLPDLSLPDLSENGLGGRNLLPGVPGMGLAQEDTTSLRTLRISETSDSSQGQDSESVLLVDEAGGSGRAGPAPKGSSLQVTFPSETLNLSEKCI

Row | SMILES | Ki (EP4 receptors) [µM] | EC50 (EP2) [µM] | EC50 (hEP2/Gqs5) [µM] | EC50 (hEP3A/Gqi5) [nM]
1 | O=C(O)c1ccc(CCC[C@@H]2[C@@H](CCc3cc(Cl)cc(Cl)c3)[C@@H](O)C[C@H]2Cl)s1 [compound 17, 5-(3-((1R,2R,3S,5R)-5-chloro-2-(3,5-dichlorophenethyl)-3-hydroxycyclopenty)propyl)thiophene-2-carboxylic acid] | > 10 | 0.004 | 0.501 | > 10000
2 | O=C(O)c1ccc(CCC[C@@H]2[C@@H](CCc3cc(F)cc(F)c3)[C@H](O)C[C@H]2Cl)s1 [11d, 5-(3-((1R,2R,3R,5R)-5-chloro-2-(3,5-difluorophenethyl)-3-hydroxycyclopentyl)propyl)thiophene-2-carboxylic acid] | 2.57 | 0.0001 | 0.01 | 8540
